Patent EP0943615A1, “1,4-DIHYDROPYRIDINE DERIVATIVES” (Nikken Chemicals Company, Limited, priority 1996, dated 1998)
“And” between values parts separate entries of the source, which are not always exact repeats. Equal values may be shown once. Read-outs that look alike come from different tables or passages of the source.

How the values were obtained:
Acute toxicity test = settings: mouse, in vivo, ip; ddY male mice, intraperitoneally, suspended in 0.5% CMC-Na with 0.1% Tween 80, observed up until 7 days
Procedure: • Animals used: ddY male mice (SLC Japan), 4-5 weeks old, three to five mice per group. • Test method: The compound of the present invention was suspended in 0.5% sodium carboxymethylcellulose (CMC-Na) containing 0.1% Tween 80. It was administered to the mice intraperitoneally in amounts from 1000 mg/kg to 250 mg/kg in groups of three to five mice until no more deaths were observed. The survival of the animals was observed up until 7 days after administration.

VJ-300 cells [1] = test: In vitro test of action suppressing proliferation of cancer cells, combined administration of doxorubicin (colony formation), resistant cells; assay type: cell-based, Human; settings: ADM alone or ADM + test compound 1 µg/ml, LD50 of ADM relative to ADM alone in KB cells = 1, 7 days incubation, colony count
[2] = test system: VCR resistant murine leukemia (P388/VCR) cells; test: In vivo test: overcoming resistance to vincristine in VCR resistant murine leukemia cell bearing mice; design: species or system CDF1 male mice; settings: P388/VCR bearing CDF1 mice, VCR 100 µg/kg alone or with compound 100 mg/kg, intraperitoneally for 5 days; for Effect of overcoming resistance T/V (%): T/C of combination over T/C of VCR alone x 100; for Rate of prolongation of life T/C (%): with respect to controls
Procedure: 10^6 VCR resistant murine leukemia (P388/VCR) cells were transplanted intraperitoneally into groups of six CDF1 male mice, then the compound of the present invention (100 mg/kg) and VCR (100 µg/kg) were administered intraperitoneally for 5 days. […] Effect of overcoming resistance to anti-cancer drug (T/V) % = [(Rate of prolongation of life using VCR and present compound (T/C))/(Rate of prolongation of life using VCR alone (T/C))] x 100 [formula]

[3] = test system: thoracic aorta of the rat; test: Action easing KCl contraction in rat arteries (aortic ring, Magnus tube); settings: read-out: IC50 value (x 10^-6 M)
VJ-300 cells [4] = test: In vitro test of action suppressing proliferation of cancer cells, combined administration of vincristine, resistant cells; assay type: cell-based, Human; settings: VCR alone or VCR + test compound 1 µg/ml, LD50 of VCR relative to VCR alone in KB cells = 1
Procedure: As the incubation solutions, use was made of 10% fetal calf serum (Flow Laboratories) and Eagle MEM medium (Nissui Seiyaku) containing 0.292 mg/ml of L-glutamine (Flow Laboratories). The tests of the action for overcoming resistance to anti-cancer drugs or action for increasing the effect of the anti-cancer drug with the combined administration of the anti-cancer drug doxorubicin (i.e., adriamycin, ADM) and the test compound were performed as follows:
The test cells were suspended in incubation solutions and adjusted to a cell density of about 200 cells/ml. The cell suspensions were injected in 2 ml amounts into petri dishes and were incubated in a CO2 gas incubator (5% CO2, 95% air) at 37°C for 24 hours. Then, 5 µl of a predetermined concentration of the aqueous ADM solution and a predetermined concentration of a DMSO solution of the test compound were added, then the incubation was continued for a further 7 days. After the end of the incubation, the result was immobilized with methanol, Giemsa stained and measured for the number of colonies per dish. The results were used to prepare a volume-reaction curve. […] The results are shown in Table 8 to Table 10 using the concentration of LD50 of ADM in the ADM alone group by KB cells as the resistance degree 1 and calculating the resistances of the following LD50 concentrations as relative ratios.
The same method as in Test Example 1 was used to test the action of vincristine (VCR) on anti-cancer drugs, prepare a volume-reaction curve, and calculate the resistances.

[5] = 50% inhibitory concentration of hyperpotassium contraction, 50mM potassium chloride, rat thoracic aorta ring, cumulative addition

Row | Compound | LD50 at 168 h (Acute toxicity test) [mg/kg] | Degree of resistance for ADM VJ-300 (VJ-300 cells [1]) | Average days of survival [2] | Effect of overcoming resistance T/V (%) [2] [%] | Rate of prolongation of life T/C (%) [2] [%] | IC50 [3, 5] [µM] | Degree of resistance for VCR VJ-300 (VJ-300 cells [4]) | IC50 ([3]; Rattus norvegicus) [µM] | Average days of survival ([2]; 100 mg/kg) | Rate of prolongation of life T/C (%) ([2]; 100 mg/kg)
1 | CCOC(=O)C1=C(c2ccc(-n3c(C)nc4ncccc43)cc2)NC(C)=C(C(=O)OCCCc2cccnc2)C1C(C)C (stereo not shown) [Compound 1, 4-isopropyl-6-methyl-2-[4-(2-methylimidazo[4,5-b]pyridin-1-yl)phenyl]-1,4-dihydropyridin-3,5-dicarboxylate 3-ethylester, 5-[3-(3-pyridyl)propyl]ester] | > 1000 | 2.4 | 12.8 | 113 | 108 |  |  |  |  | 
2 | CCOC(=O)C1=C(c2ccc(-n3c(C)nc4cnccc43)cc2)NC(C)=C(C(=O)OC/C=C/c2cccnc2)C1CCc1ccccc1 (stereo not shown) [Compound 24, 6-methyl-2-[4-(2-methylimidazo[4,5-c]pyridin-1-yl)phenyl]-4-(2-phenyl)ethyl-1,4-dihydropyridin-3,5-dicarboxylate 3-ethylester, 5-[(E)-3-(3-pyridyl)-2-propenyl]ester] | > 1000 | 1.1 | 13.3 | 136 | 140 |  |  |  |  | 
3 | CCCCCC1C(C(=O)OC/C=C/c2cccnc2)=C(C)NC(c2ccc(-n3c(C)nc4cnccc43)cc2)=C1C(=O)OCC (stereo not shown) [Compound 23, 6-methyl-2-[4-(2-methylimidazo[4,5-c]pyridin-1-yl)phenyl]-4-pentyl-1,4-dihydropyridin-3,5-dicarboxylate 3-ethylester, 5-[(E)-3-(3-pyridyl)-2-propenyl]ester] | > 1000 | 1.2 | 13.5 | 138 | 142 |  |  |  |  | 
4 | CCOC(=O)C1=C(c2ccc(-n3c(C)nc4cnccc43)cc2)NC(C)=C(C(=O)OCCCc2cccnc2)C1C(C)C (stereo not shown) [Compound 2, 4-isopronyl-6-methyl-2-[4-(2-methylimidazo[4,5-c]pyridin-1-yl)phenyl]-1,4-dihydronyridin-3,5-dicarboxylate 3-ethylester, 5-[3-(3-pyridyl)propyl]ester] | > 1000 | 2.7 |  |  |  | > 30 | 9.6 |  |  | 
5 | CCCCCC1C(C(=O)OCCCc2cccnc2)=C(C)NC(c2ccc(-n3c(C)nc4ncccc43)cc2)=C1C(=O)OCC (stereo not shown) [Compound 3, 6-methyl-2-[4-(2-methylimidazo[4,5-b]pyridin-1-yl)phenyl]-4-pentyl-1,4-dihydropyridin-3,5-dicarboxylate 3-ethylester, 5-[3-(3-pyridyl)propyl]ester] |  | 1.2 | 15.0 | 133 | 127 |  | 7.1 |  |  | 
6 | CCCCCC1C(C(=O)OCCCc2cccnc2)=C(C)NC(c2cccnc2)=C1C(=O)OCC (stereo not shown) [Compound 16, 6-methyl-4-pentyl-2-(3-pyridyl)-1,4-dihydropyridin-3,5-dicarboxylate 3-ethylester, 5-[3-(3-pyridyl)propyl]ester] | > 1000 | 3.0 | 16.2 | 143 | 137 |  |  |  |  | 
7 | CCOC(=O)C1=C(c2ccc(-n3ccnc3)cc2)NC(C)=C(C(=O)OC/C=C/c2cccnc2)C1/C=C/c1ccccc1 (stereo not shown) [Compound 33, 2-[4-(1-imidazolyl)phenyl]-6-methyl-4-[(E)-2-phenylethenyl]-1,4-dihydropyridin-3,5-dicarboxylate 3-ethylester, 5-[(E)-3-(3-pyridyl)-2-propenyl)ester] | > 1000 | 1.4 |  |  |  |  |  |  |  | 
8 | COc1ccc(CCN(C)CCCC(C#N)(c2ccc(OC)c(OC)c2)C(C)C)cc1OC (stereo not shown) [Verapamil] |  |  |  |  |  |  |  | 1.43 |  | 
9 | CCOC(=O)C1=C(c2ccc(-n3ccnc3)cc2)NC(C)=C(C(=O)OCCCc2cccnc2)C1/C=C/c1ccccc1 (stereo not shown) [Compound 43, 2-[4-(1-imidazolyl)phenyl]-6-methyl-4-[(E)-2-phenylethenyl]-1,4-dihydropyridin-3,5-dicarboxylate 3-ethylester, 5-[3-(3-pyridyl)propyl]ester] |  | 1.4 | 13.4 | 137 | 141 |  |  |  |  | 
10 | CCCCCC1C(C(=O)OCCCc2cccnc2)=C(C)NC(c2ccccc2)=C1C(=O)OCC (stereo not shown) [Compound 15, 6-methyl-4-pentyl-2-phenyl-1,4-dihydropyridin-3,5-dicarboxylate 3-ethylester, 5-[3-(3-pyridyl)propyl]ester] |  | 3.2 | 15.7 | 128 | 139 |  | 6.5 |  |  | 
11 | CC[C@]1(O)C[C@H]2CN(CCc3c([nH]c4ccccc34)[C@@](C(=O)OC)(c3cc4c(cc3OC)N(C=O)[C@H]3[C@@](O)(C(=O)OC)[C@H](OC(C)=O)[C@]5(CC)C=CCN6CC[C@]43[C@@H]65)C2)C1 [VCR, vincristine, reference compound] |  |  |  | 100 |  |  | 483 - 952 |  | 11.3 and 9.8 and 12.3 | 96% and 103% and 109%
12 | COC(=O)C1=C(C)NC(C)=C(C(=O)OCCN(C)Cc2ccccc2)C1c1cccc([N+](=O)[O-])c1 (stereo not shown) [Nicardipine] |  |  |  |  |  | 0.26 |  |  |  | 
